Test results as given in ChEMBL document CHEMBL5244271, “Targeted Drugs for Treatment of Pulmonary Arterial Hypertension: Past, Present, and Future Perspectives” (J Med Chem, 2020).

What was measured:
[1] = Half life in human; type: ADME
[2] = biological target: T1, Endothelin receptor type B (Homo sapiens, UniProt P24530); test: Binding affinity to human placenta ETB; type: tissue-based
T1 sequence (P24530 whole entry): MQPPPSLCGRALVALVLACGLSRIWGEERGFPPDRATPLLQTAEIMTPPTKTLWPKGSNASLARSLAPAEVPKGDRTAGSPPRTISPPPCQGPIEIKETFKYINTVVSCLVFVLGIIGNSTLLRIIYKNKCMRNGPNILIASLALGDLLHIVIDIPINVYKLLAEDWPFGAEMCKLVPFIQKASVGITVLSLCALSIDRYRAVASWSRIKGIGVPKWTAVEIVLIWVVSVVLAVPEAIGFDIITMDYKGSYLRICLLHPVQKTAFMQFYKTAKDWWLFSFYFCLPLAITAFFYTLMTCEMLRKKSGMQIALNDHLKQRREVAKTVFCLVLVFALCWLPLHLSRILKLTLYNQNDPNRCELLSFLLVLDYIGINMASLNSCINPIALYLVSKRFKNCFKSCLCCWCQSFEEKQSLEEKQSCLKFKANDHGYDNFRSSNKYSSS

Endothelin-1 receptor = biological target: T2, Endothelin-1 receptor (Homo sapiens, UniProt P25101); test: Binding affinity to recombinant human ETA
T2 sequence (P25101 whole entry): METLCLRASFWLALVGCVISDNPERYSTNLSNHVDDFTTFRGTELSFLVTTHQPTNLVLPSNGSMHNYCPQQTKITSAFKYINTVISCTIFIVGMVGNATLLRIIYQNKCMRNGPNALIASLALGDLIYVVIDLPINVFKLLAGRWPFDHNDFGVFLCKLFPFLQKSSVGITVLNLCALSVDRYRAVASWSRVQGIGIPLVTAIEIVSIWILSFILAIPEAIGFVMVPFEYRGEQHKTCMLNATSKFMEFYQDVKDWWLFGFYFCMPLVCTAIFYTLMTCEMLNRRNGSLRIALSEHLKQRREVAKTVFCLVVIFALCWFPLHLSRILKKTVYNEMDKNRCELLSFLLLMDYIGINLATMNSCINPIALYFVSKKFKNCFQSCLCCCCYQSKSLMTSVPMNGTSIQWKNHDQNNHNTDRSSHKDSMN

[3] = Activation of rabbit sGC assessed as induction of preconstricted aortic ring relaxation; details: Oryctolagus cuniculus
[4] = Tmax in human; type: ADME
[5] = Tmax in po dosed human; type: ADME, organism-based; details: in vivo
[6] = Half life in po dosed human; type: ADME, organism-based; details: in vivo

| SMILES | half-life [1] | IC50 [3] | other results |
| --- | --- | --- | --- |
| O=C(O)COC[C@H]1CC[C@H](COC(=O)N(c2ccccc2)c2ccc(Cl)cc2)CC1 | 24 h |  |  |
| CN1CC(=O)N2[C@H](c3ccc4c(c3)OCO4)c3[nH]c4ccccc4c3C[C@@H]2C1=O | 17.5 h |  |  |
| O=S(=O)(Nc1ncnc(OCCO)c1-c1ccccc1)c1ccc(C(F)(F)F)cc1 |  |  | IC50 [2]: 2 µM; IC50 (Endothelin-1 receptor): 18 µM |
| Nc1nc(-c2nn(Cc3ccccc3F)c3ncccc23)nc(N)c1N1CCOCC1 |  | 0.1 µM |  |
| Nc1nc(-c2nn(Cc3ccccc3F)c3ncccc23)ncc1C1CC1 |  | 0.304 µM |  |
| OCc1ccc(-c2nn(Cc3ccccc3F)c3ccccc23)o1 |  | 4.9 µM |  |
| OCc1ccc(-c2nn(Cc3ccccc3)c3ccccc23)o1 |  | 10 µM |  |
| OCc1ccc(-c2nn(Cc3ccccc3F)c3ncccc23)o1 |  | 1.7 µM |  |
| Nc1ccnc(-c2nn(Cc3ccccc3F)c3ncccc23)n1 |  | 0.27 µM |  |
| NC(=O)[C@](O)(CNc1nc(-c2cc(-c3ccon3)n(Cc3ccccc3F)n2)ncc1F)C(F)(F)F [OLINCIGUAT] | 30 h |  | Tmax [4]: 2 h |
| COC(=O)N(C)c1c(N)nc(-c2nn(Cc3ccccc3F)c3ncccc23)nc1N [RIOCIGUAT] |  | 0.12 µM | Tmax [5]: 0.5 h; half-life [6]: 5 h |
| CCCOc1ccc(S(=O)(=O)NCCC2CCCN2C)cc1-c1nc2c(CCC)nn(C)c2c(=O)[nH]1 (stereo not drawn) | 12.3 h |  | Tmax [4]: 0.8 h |
| OC(CNc1nc(-c2cc(-c3ccon3)n(Cc3ccccc3F)n2)ncc1F)(C(F)(F)F)C(F)(F)F | 24 h |  |  |
